Biological target: T1, recombinant human tryptase, beta, from lung (Homo sapiens, UniProt P20231)
T1 construct: purchased Promega or Enzo Life Sciences G5631 or BML-SE418
Assay: Evaluation of inhibition of tryptase activity (Boc-Gln-Ala-Arg-AMC fluorescence)
Assay type: biochemical
Settings: exemplary silyl monomers; 1 nM tryptase; read-out: IC50 range
Procedure: Stock solutions of recombinant human tryptase, beta, from lung (Promega: catalog number G5631, or Enzo Life Sciences: catalog number BML-SE418) were made at 30 μM, in solution with 50 μM heparin sulfate and 500 mM NaCl. Multimer tryptase inhibitor stock solutions were made at 50 mM in DMSO. Drug plates were made at 5× the final concentration in assay buffer (50 mM HEPES, 150 mM NaCl, 100 μM EDTA, pH 7.4, 0.02% Tween-20). A final concentration of 1 nM tryptase was used. When required, drugs were diluted in assay buffer immediately before use in 10-fold serial dilutions. […] The release of fluorescent AMC was immediately measured every 60 seconds over 30-60 minutes at an excitation wavelength of 367 nm, monitoring emission at 468 nm on a Spectramax M5 (Molecular Devices) microplate reader. The Softmax Pro (Molecular Devices) and Graphpad prism software were used to determine Vmax, and concentration-response curve IC50s, respectively. As indicated below, IC50 ranges are provided for various exemplary monomers.

T1 sequence (P20231 31-275): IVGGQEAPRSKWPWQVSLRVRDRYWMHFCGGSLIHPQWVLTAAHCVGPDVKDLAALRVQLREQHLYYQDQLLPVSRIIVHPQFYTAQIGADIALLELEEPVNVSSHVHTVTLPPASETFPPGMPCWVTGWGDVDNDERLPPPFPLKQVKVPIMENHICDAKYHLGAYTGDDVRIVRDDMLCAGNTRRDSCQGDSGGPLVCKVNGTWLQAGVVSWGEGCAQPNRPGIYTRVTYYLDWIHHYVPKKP

Compound	IC50 [nM]
C[Si](C)(O)c1cccc2ccc(C(=O)N3CCC4(CC3)COc3ccc(CN)cc34)cc12 [Target T52SPIRO]	0.1 to 1000
C[Si](C)(O)Cc1cccc(C(=O)N2CCC(c3cccc(CN)c3)CC2)c1 [Target T122]	1000 to 10000
C[Si](C)(O)COc1cccc(C(=O)N2CCC(c3cccc(CN)c3)CC2)c1 [Target T138, (4-(3-(aminomethyl)phenyl)-piperidin-1-yl)(3-((hydroxydimethylsilyl)-methoxy)phenyl)methanone]	0.1 to 1000
C[Si](C)(/C=C/c1cccc(CC(=O)N2CCC(c3cccc(CN)c3)CC2)c1)O[Si](C)(C)/C=C/c1cccc(CC(=O)N2CCC(c3cccc(CN)c3)CC2)c1 [Target T47vinyl]	1000 to 10000
C[Si](C)(O)COc1ccc(C(=O)N2CCC(c3cccc(CN)c3)CC2)cc1 [Target T137, (4-(3-(aminomethyl)phenyl)piperidin-1-yl)(4-((hydroxydimethylsilyl)methoxy)-phenyl)methanone]	0.1 to 1000
Cn1cc(C(=O)N2CCC(c3cccc(CN)c3)CC2)c2ccc([Si](C)(C)O)cc21 [Target T152NMethyl]	10000 to 65000
C[Si](C)(O)c1cccc2cc(C(=O)N3CCC(c4cc(CN)ccc4F)CC3)ccc12 [Target T120F]	0.1 to 1000
C[Si](C)(O[Si](C)(C)c1cccc(CC(=O)N2CCC(c3cccc(CN)c3)CC2)c1)c1cccc(CC(=O)N2CCC(c3cccc(CN)c3)CC2)c1 [Target T47]	0.1 to 1000
CSc1cc(C(=O)N2CCC(c3cccc(CN)c3)CC2)cc([Si](C)(C)O)c1 [Target T129Smethyl]	0.1 to 1000
C[Si](C)(O)c1cccc(C(=O)N2CCC3(CC2)COc2ccc(CN)cc23)c1 [Target T129SPIRO]	0.1 to 1000
C[Si](C)(O)c1csc2ccc(C(=O)N3CCC(c4cccc(CN)c4)CC3)cc12 [Target T149]	1000 to 10000
C[Si](C)(O)c1cccc2ccc(C(=O)N3CCC(c4cccc(CN)c4)CC3)cc12 [Target T52]	0.1 to 1000
C[Si](C)(O)c1cccc(-c2cccc(C(=O)N3CCC(c4cccc(CN)c4)CC3)c2)c1 [T35 Silyl]	10000 to 65000
C[Si](C)(O)c1coc2ccc(C(=O)N3CCC(c4cccc(CN)c4)CC3)cc12 [Target T148]	0.1 to 1000
C[Si](C)(O)c1ccc2cccc(C(=O)N3CCC(c4cccc(CN)c4)CC3)c2c1 [Target T11SILYL]	0.1 to 1000
C[Si](C)(O[Si](C)(C)c1cc2c(C(=O)N3CCC(c4cccc(CN)c4)CC3)cccc2s1)c1cc2c(C(=O)N3CCC(c4cccc(CN)c4)CC3)cccc2s1 [Target T49]	0.1 to 1000
C[Si](C)(O)c1cccc(C(=O)N2CCC(c3cccc(CN)c3)CC2)c1 [Target T129]	0.1 to 1000
C[Si](C)(O[Si](C)(C)c1ccc(CC(=O)N2CCC(c3cccc(CN)c3)CC2)cc1)c1ccc(CC(=O)N2CCC(c3cccc(CN)c3)CC2)cc1 [Target T48]	1000 to 10000
C[Si](C)(O)c1cccc2[nH]c(C(=O)N3CCC(c4cccc(CN)c4)CC3)cc12 [Target T32Silyl]	10000 to 65000
C[Si](C)(O[Si](C)(C)c1cccc2sc(C(=O)N3CCC(c4cccc(CN)c4)CC3)cc12)c1cccc2sc(C(=O)N3CCC(c4cccc(CN)c4)CC3)cc12 [Target T46]	0.1 to 1000
C[Si](C)(O)c1ccc(C(=O)N2CCC(c3cccc(CN)c3)CC2)cc1 [Target T130]	0.1 to 1000
C[Si](C)(O)c1ccc2c(C(=O)N3CCC(c4cccc(CN)c4)CC3)c[nH]c2c1 [Target T152]	10000 to 65000

Test system: not listed separately
Assay: Hydrolysis of disiloxane to silanol followed by NMR
Assay type: physicochemical
Settings: expected from the effect of alkyl group size on silyl ether hydrolysis
From the text: Without wishing to be bound by any theory, the estimated half-life for hydrolysis of the disiloxane depicted here:
[drawing 18] is 15 days based at pH5 in 90% DMSO/10% water at room temperature based upon NMR experiments. […] Thus in certain aqueous situations, the hydrolysis of the dimeric disiloxane to monomeric silanol may be essentially irreversible on the timescale relevant for the biological functions they are modulating.

Compound	half-life of hydrolysis relative to the depicted disiloxane
CC[Si](CC)(O[Si](CC)(CC)c1ccccc1)c1ccccc1 [diphenyltetraethyldisiloxane]	more than ten fold longer

Reference: patent US10912786B2, “Silyl monomers capable of multimerizing in an aqueous solution, and methods of using same” (Cornell University, priority 2011, dated 2021)
